Legend:
Assay in all cases: relative viability (nuclei count vs DMSO), 5 days (fraction); higher = more cells survive
IPA-3 + Luminespib = compound: C1=CC=C2C(=C1)C=CC(=C2SSC3=C(C=CC4=CC=CC=C43)O)O [IPA-3] + CCNC(=O)c1noc(-c2cc(C(C)C)c(O)cc2O)c1-c1ccc(CN2CCOCC2)cc1 [Luminespib] (partner 0.01 µM)
How it was run: (§1)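 Relative viability is defined as nuclei in treated wells over nuclei in vehicle wells. Duplicate plates were run and medians reported. Lung cancer cell lines in 1536-well plates were dosed by pin tool one day after seeding, with one drug or with a fixed anchor-drug dose plus five library-drug doses (not always all listed) in √10 steps, and nuclei were counted after 5 days.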

RAF265 + Pictilisib = compound: Cn1c(Nc2ccc(C(F)(F)F)cc2)nc2cc(Oc3ccnc(-c4ncc(C(F)(F)F)[nH]4)c3)ccc21 [RAF265] + CS(=O)(=O)N1CCN(Cc2cc3nc(-c4cccc5[nH]ncc45)nc(N4CCOCC4)c3s2)CC1 [Pictilisib] (partner 1 µM)
How it was run: as §1

IPA-3 + AZD7762 = compound: C1=CC=C2C(=C1)C=CC(=C2SSC3=C(C=CC4=CC=CC=C43)O)O [IPA-3] + NC(=O)Nc1cc(-c2cccc(F)c2)sc1C(=O)N[C@H]1CCCNC1 [AZD7762] (partner 0.2 µM)
How it was run: as §1

IPA-3 + Lapatinib = compound: C1=CC=C2C(=C1)C=CC(=C2SSC3=C(C=CC4=CC=CC=C43)O)O [IPA-3] + CS(=O)(=O)CCNCc1ccc(-c2ccc3ncnc(Nc4ccc(OCc5cccc(F)c5)c(Cl)c4)c3c2)o1 [Lapatinib] (partner 2 µM)
How it was run: as §1

Row | Cell Line | relative viability (IPA-3 + Luminespib; first compound 0.2 µM) | relative viability (IPA-3 + Luminespib; first compound 0.6325 µM) | relative viability (IPA-3 + Luminespib; first compound 2 µM) | relative viability (IPA-3 + Luminespib; first compound 6.325 µM) | relative viability (IPA-3 + Luminespib; first compound 20 µM) | relative viability (RAF265 + Pictilisib; first compound 0.01 µM) | relative viability (RAF265 + Pictilisib; first compound 0.03162 µM) | relative viability (RAF265 + Pictilisib; first compound 0.1 µM) | relative viability (RAF265 + Pictilisib; first compound 0.3162 µM) | relative viability (RAF265 + Pictilisib; first compound 1 µM) | relative viability (IPA-3 + AZD7762; first compound 0.2 µM) | relative viability (IPA-3 + AZD7762; first compound 0.6325 µM) | relative viability (IPA-3 + AZD7762; first compound 2 µM) | relative viability (IPA-3 + AZD7762; first compound 6.325 µM) | relative viability (IPA-3 + AZD7762; first compound 20 µM) | relative viability (IPA-3 + Lapatinib; first compound 0.2 µM) | relative viability (IPA-3 + Lapatinib; first compound 0.6325 µM) | relative viability (IPA-3 + Lapatinib; first compound 2 µM) | relative viability (IPA-3 + Lapatinib; first compound 6.325 µM) | relative viability (IPA-3 + Lapatinib; first compound 20 µM)
1 | NCI-H1623 | 0.574 | 0.481 | 0.675 | 0.516 | 0.556 |  |  |  |  |  |  |  |  |  |  |  |  |  |  | 
2 | NCI-H3122 | 0.0957 | 0.0861 | 0.108 | 0.074 | 0.116 | 0.586 | 0.831 | 0.575 | 0.452 | 0.301 | 1.02 | 1.01 | 0.995 | 1.11 | 0.999 | 1.02 | 0.996 | 0.993 | 1.09 | 0.946
3 | NCI-H2347 | 0.525 | 0.0323 | 0.357 | 0.269 | 0.45 | 0.789 | 0.952 | 0.652 | 0.629 | 0.245 | 0.789 | 0.604 | 0.777 | 0.738 | 0.904 | 1.08 | 0.938 | 0.99 | 0.945 | 0.935
4 | HCC-44 | 1.12 | 0.995 | 1.21 | 0.947 | 1.25 | 0.631 | 0.697 | 0.55 | 0.507 | 0.561 | 0.963 | 0.998 | 1.02 | 1 | 0.907 | 0.995 | 1.02 | 1.05 | 0.883 | 1.03
5 | HCC-78 |  |  |  |  |  | 0.224 | 0.216 | 0.291 | 0.171 | 0.145 | 0.712 | 0.625 | 0.671 | 0.697 | 0.904 | 1.01 | 0.7 | 0.924 | 0.763 | 1.02
6 | COR-L23 | 0.866 | 0.627 | 0.725 | 0.643 | 0.48 | 0.874 | 0.663 | 0.626 | 0.368 | 0.323 |  |  |  |  |  | 1.09 | 0.985 | 1.01 | 1.02 | 0.988
7 | NCI-H1648 |  |  |  |  |  |  |  |  |  |  | 0.673 | 0.863 | 0.751 | 0.621 | 0.825 |  |  |  |  | 
8 | NCI-H2023 | 0.93 | 0.617 | 0.674 | 0.712 | 0.693 | 0.243 | 0.212 | 0.272 | 0.152 | 0.214 |  |  |  |  |  | 0.91 | 0.711 | 0.774 | 0.925 | 0.832
9 | LCLC-103H | 1.09 | 1 | 0.916 | 0.929 | 0.926 | 0.616 | 0.615 | 0.638 | 0.431 | 0.422 | 0.862 | 0.814 | 0.744 | 0.788 | 0.872 |  |  |  |  | 
10 | NCI-H1563 | 0.514 | 0.526 | 0.532 | 0.512 | 0.437 | 0.648 | 0.742 | 0.626 | 0.604 | 0.718 |  |  |  |  |  | 0.968 | 0.657 | 0.871 | 1.01 | 0.907
11 | HCC-366 |  |  |  |  |  | 0.18 | 0.211 | 0.181 | 0.189 | 0.147 | 0.443 | 0.337 | 0.334 | 0.432 | 0.316 | 1.08 | 1.05 | 1.09 | 1.09 | 1.18
12 | NCI-H2342 | 0.701 | 0.677 | 0.747 | 0.802 | 0.765 |  |  |  |  |  | 0.429 | 0.563 | 0.502 | 0.681 | 0.542 |  |  |  |  | 
13 | NCI-H522 | 1.34 | 1.05 | 1.25 | 1.05 | 1.07 |  |  |  |  |  | 0.974 | 0.809 | 0.759 | 1.02 | 0.91 |  |  |  |  | 
14 | SK-MES-1 | 0.753 | 0.691 | 0.831 | 0.782 | 0.808 | 0.311 | 0.301 | 0.218 | 0.214 | 0.141 |  |  |  |  |  | 0.524 | 0.431 | 0.487 | 0.423 | 0.449
15 | EBC-1 |  |  |  |  |  | 0.375 | 0.386 | 0.233 | 0.317 | 0.221 |  |  |  |  |  | 0.191 | 0.223 | 0.199 | 0.217 | 0.25
16 | NCI-H1650 | 0.193 | 0.179 | 0.218 | 0.208 | 0.191 | 0.642 | 0.528 | 0.755 | 0.348 | 0.583 |  |  |  |  |  | 0.925 | 0.176 | 0.802 | 0.893 | 0.774
17 | IA-LM |  |  |  |  |  | 0.334 | 0.402 | 0.341 | 0.336 | 0.186 |  |  |  |  |  | 1.07 | 0.8 | 0.755 | 0.578 | 0.725
18 | NCI-H1703 |  |  |  |  |  | 0.239 | 0.214 | 0.218 | 0.238 | 0.196 | 0.119 | 0.121 | 0.126 | 0.145 | 0.133 | 1.17 | 1.05 | 0.861 | 0.961 | 1.35
19 | NCI-H661 | 0.911 | 0.874 | 0.919 | 0.866 | 0.921 | 0.438 | 0.498 | 0.383 | 0.288 | 0.283 |  |  |  |  |  | 0.445 | 0.472 | 0.584 | 0.447 | 0.537
20 | NCI-H2228 | 0.155 | 0.181 | 0.183 | 0.175 | 0.145 | 0.539 | 0.371 | 0.465 | 0.208 | 0.255 |  |  |  |  |  | 1.87 | 1.39 | 1.24 | 0.825 | 1.18
21 | NCI-H520 | 0.213 | 0.3 | 0.266 | 0.244 | 0.247 | 0.273 | 0.246 | 0.234 | 0.228 | 0.15 |  |  |  |  |  | 1.04 | 0.894 | 0.697 | 0.95 | 0.729
22 | NCI-H441 | 0.401 | 0.29 | 0.407 | 0.324 | 0.422 | 0.572 | 0.466 | 0.304 | 0.261 | 0.206 | 1.32 | 0.972 | 1.33 | 1.21 | 1.22 |  |  |  |  | 

From the supplement of paper PMC10307832
